Read-outs that look alike come from different tables or passages of the source.

The term GI50 denotes the concentration at which growth is held to half of that of the control.

One experiment has as its system HT29 colon cells. As to the kind of experiment: Mitochondrial membrane potential, TMRE-MtMP assay. The experiment is classed as cell-based, human. As to conditions: treatment at GI50 concentration (FCCP positive control 20 μM). An excerpt:
To study the MtMP changes in treated cells, a TMRE-MtMP Assay Kit (Abcam, Cambridge, MA, USA) was used (see Supplementary Materials).
TMRE was used to stain HT29 colon cells, and treatment with the complexes and ligands was completed at each specific GI50 concentration. The MtMP changes detected are expressed as RFU. Additionally, lower RFU values correspond to a decline in mitochondrial activity. […]
dimethylthiazol-2-yl]-2,5-diphenyltetrazolium bromide) assay and absorbance was read at 540 nm. An eight-point dose response curve was produced from which the GI50 value was calculated, representing the drug concentration at which cell growth was inhibited by 50% based on the difference between the optical density values on day 0 and those at the end of drug exposure. […]
5. Mitochondrial Membrane Potential (MtMP)
In 96-well plates, 25,000 cells/mL of HT29 colon cells in DMEM were seeded. Cells were treated with a GI50 drug concentration for each complex. […]
washed with PBS and stained with 1 μM tetramethylrhodamine, ethyl ester (TMRE) and incubated for 30 min. TMRE was then removed, and cells were then re-washed with PBS (0.2% BSA), after which phenol red free media was added. The plates were directly scanned to measure fluorescence (expressed as RFU), using the Glo-Max®-Multimode […]
microplate reader (Promega Corporation, Alexandra, VIC, Australia) at an […]
For the positive control, 20 μM carbonyl cyanide 4-(trifluoromethoxy) phenylhydrazone (FCCP)) was added to the cells and incubated for 10 min. The cells were washed with PBS (0.2% BSA) and stained with TMRE (1 μM) for 30 min; this was removed and phenol red free media was added, and the final solution was scanned as mentioned above. […]

For a further experiment, the system named is H460 lung. As to the kind of experiment: MTT growth inhibition, 72 h, H460. Format: cell-based. As to conditions: for GI50: H460, MTT, 72 h.
The next experiment deals with T1, COX-2 (human) (Homo sapiens, UniProt P35354).
T1 construct: purchased Cayman Chemical Item No. 701080
T1 sequence (P35354 18-604): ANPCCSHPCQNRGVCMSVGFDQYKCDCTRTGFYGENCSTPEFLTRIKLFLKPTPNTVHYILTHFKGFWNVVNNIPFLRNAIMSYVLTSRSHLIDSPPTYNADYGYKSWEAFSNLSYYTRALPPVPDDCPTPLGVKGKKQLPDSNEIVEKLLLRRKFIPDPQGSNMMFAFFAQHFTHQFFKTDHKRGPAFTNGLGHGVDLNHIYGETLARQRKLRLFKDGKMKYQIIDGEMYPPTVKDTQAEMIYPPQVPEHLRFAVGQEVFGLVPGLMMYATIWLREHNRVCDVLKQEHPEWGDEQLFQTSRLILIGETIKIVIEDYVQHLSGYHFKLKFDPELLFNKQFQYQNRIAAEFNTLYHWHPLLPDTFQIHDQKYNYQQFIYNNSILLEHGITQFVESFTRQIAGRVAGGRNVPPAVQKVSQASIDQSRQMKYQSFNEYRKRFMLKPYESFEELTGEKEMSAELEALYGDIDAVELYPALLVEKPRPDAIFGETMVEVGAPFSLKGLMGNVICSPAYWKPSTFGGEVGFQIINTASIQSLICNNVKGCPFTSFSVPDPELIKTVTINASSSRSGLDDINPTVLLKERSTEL
As to the kind of experiment: COX-2 (human) Inhibitor Screening Assay Kit (ELISA). The experiment is classed as biochemical. An excerpt: NSAIDs are well recognised as inhibitors of the COX enzymes, COX-1 and COX-2 [37, 42, 45]. […] COX-1 is typically expressed in most tissues and is associated with normal physiological functions, particularly by maintaining prostaglandin production at basal levels. In contrast, COX-2 is involved in the excessive production of prostaglandin during inflammation (or hypoxia), and extensive studies have shown that COX-2 resultant prostaglandins are overexpressed in tumours. […] To explore the COX-2 inhibitory properties of the studied complexes (1–6), ELISA was used against the COX-2 enzyme. […]
6. Cyclooxygenase-2 (COX-2) Inhibition
The standards, samples and assay preparation, and completion were achieved as instructed by the manufacturer. The assay necessitated three steps, being the standards preparation, the COX reaction, and the enzyme immunoassay. The standards were prepared in 2-fold serial dilution of the prostaglandin F2α enzyme-linked immunosorbent assay (ELISA) standard starting at 500 pg/mL to 3.9 pg/mL in ELISA buffer (1X). The COX reaction dilution preparation for the background samples included the addition of background COX-2 (20 μL), which was inactivated in boiling water for 3 min. The background values were generated by adding 10 μL of the inactivated COX-2, 160 μL of the reaction buffer (1X), 10 μL of heme and 10 μL of DMSO (inhibitor vehicle). The COX reaction dilution preparation for the COX-2 100% initial activity samples included the addition 160 μL of the reaction buffer (1X), 10 μL of heme, 10 μL of COX-2 and 10 μL of DMSO (inhibitor vehicle). The COX reaction dilution preparation for the COX-2 inhibitor samples included the addition of 160 μL of the reaction buffer (1X), 10 μL of heme, 10 μL […]
The reaction was then initiated by the addition of 10 μL of arachidonic acid and potassium hydroxide solution (1:1), and […]
enzyme catalysis. The tubes were then vortexed and incubated for 5 min at room […]
temperature. The background samples were diluted with ELISA buffer (1X) 1:100 times […]
and the COX-2 100% initial activity and COX-2 inhibitor samples were diluted 1:2000 and […]
1:4000 times. For the enzyme immunoassay, 100 μL of the ELISA buffer (1X) was added […]
to non-specific binding wells (NSBs), 50 μL of the ELISA buffer (1X) was added to […]
maximum binding wells (B0) and 50 μL of each prostaglandin F2α standard was added to […]
standard wells in duplicates. 50 μL of background sample and 50 μL of COX-2 100% […]
initial activity samples were independently added to the wells in duplicates. Inhibitor […]
samples (50 μL) being investigated were added to the wells in triplicates. Prostaglandin […]
F2α acetyl-cholinesterase (AChE) tracer (50 μL) was added to all wells but the total […]
activity well and blank wells. Prostaglandin F2α ELISA antiserum (50 μL) was added to […]
each well but the total activity well, NSBs and blank wells. The plate was then covered […]
with a plastic seal and incubated overnight at room temperature on an orbital shaker. The […]
wells were then washed five times using kit wash buffer (1X). Ellman’s reagent (200 μL) […]
was then added to each well, as well as 5 μL of the AChE tracer into the total activity […]
well. The plate was then covered with the plastic seal, placed on an orbital shaker in the […]
dark to develop for 2 hours at room temperature. […]
nm using the SpectraMax M2 series multi-mode microplate reader (Molecular Devices, […]
For orientation: In an ELISA, binding on a coated surface is turned into a signal by an enzyme label.

A further experiment has as its system BE2C neuroblastoma. As to the kind of experiment: MTT growth inhibition, 72 h, BE2C. Format: cell-based. As to conditions: BE2C, MTT, 72 h.
The next experiment has as its system Du145 prostate. As to the kind of experiment: MTT growth inhibition, 72 h, Du145. As to conditions: for GI50: Du145, MTT, 72 h. Format: cell-based.

As to `COc1ccc2c(c1)c(CC(=O)OCC(=O)[O][Pt-2]13([OH])([NH2+][C@H]4CCCC[C@@H]4[NH2+]1)[n+]1cccc4c(C)c(C)c5ccc[n+]3c5c41)c(C)n2C(=O)c1ccc(Cl)cc1` [Complex 6, [Pt^IV(5,6-Me2phen)(SS-DACH)(ACE)(OH)]^2+], the “MtMP Changes” value in the experiment with HT29 colon cells (HT29, 24 h) was determined as 387 ± 7 RFU; in the experiment with HT29 colon cells (HT29, 48 h), 284 ± 11 RFU; in the experiment on HT29 colon cells (HT29, 72 h), 112 ± 8 RFU. In the experiment on H460 lung, the “fold more potent than the platinum(IV) scaffold” value is reported as about 12 fold. The GI50 in the experiment with H460 lung was 16 ± 2 nM; in the experiment with BE2C neuroblastoma it was 160 ± 19 nM; with Du145 prostate it was 0.22 ± 0.1 nM. Besides, the “Percentage COX-2 Inhibitory Activity” value at COX-2 (human) is 32 ± 3%. For the same compound, the “fold more potent than its platinum(II) precursor” value in the experiment with Du145 prostate (Du145) is recorded as about 21 fold.
In the case of `COc1ccc2cc([C@H](C)C(=O)O)ccc2c1` [NPX, naproxen], the “MtMP Changes” value with HT29 colon cells (HT29, 24 h) came out at 499 ± 10 RFU; with HT29 colon cells (HT29, 48 h), 397 ± 13 RFU; with HT29 colon cells (HT29, 72 h), 304 ± 9 RFU. For the same compound, the GI50 in the experiment with H460 lung (Homo sapiens, NCI-H460) is over 50000 nM; in the experiment with BE2C neuroblastoma (Homo sapiens, BE(2)-C) it was over 50000 nM; with Du145 prostate (Homo sapiens, DU-145), over 50000 nM. Moreover, the “Percentage COX-2 Inhibitory Activity” value on COX-2 (human) (72 h) is recorded as 83 ± 5%.
